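Method: 48-hour compound exposure of cells in 96-well plates, five concentrations, linear interpolation of endpoints. TGI: total growth inhibition.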
Tests used:
Test in all cases: DTP human tumour cell line panel, 48 h
U251 CNS = test system: U251 CNS
SF-539 CNS = test system: SF-539 CNS
CCRF-CEM leukemia = test system: CCRF-CEM leukemia
K-562 leukemia = test system: K-562 leukemia
T-47D breast = test system: T-47D breast
OVCAR-5 ovarian = test system: OVCAR-5 ovarian
BT-549 breast = test system: BT-549 breast
OVCAR-3 ovarian = test system: OVCAR-3 ovarian
RPMI-8226 leukemia = test system: RPMI-8226 leukemia
UO-31 renal = test system: UO-31 renal
OVCAR-8 ovarian = test system: OVCAR-8 ovarian
TK-10 renal = test system: TK-10 renal
HCT-116 colon = test system: HCT-116 colon
UACC-257 melanoma = test system: UACC-257 melanoma
SNB-75 CNS = test system: SNB-75 CNS
MALME-3M melanoma = test system: MALME-3M melanoma
SK-MEL-28 melanoma = test system: SK-MEL-28 melanoma
NCI-H522 lung = test system: NCI-H522 lung
UACC-62 melanoma = test system: UACC-62 melanoma
PC-3 prostate = test system: PC-3 prostate
NCI-H460 lung = test system: NCI-H460 lung
DU-145 prostate = test system: DU-145 prostate
LOX IMVI melanoma = test system: LOX IMVI melanoma
OVCAR-4 ovarian = test system: OVCAR-4 ovarian
SK-MEL-5 melanoma = test system: SK-MEL-5 melanoma
SF-268 CNS = test system: SF-268 CNS
SF-295 CNS = test system: SF-295 CNS
A498 renal = test system: A498 renal
HL-60(TB) leukemia = test system: HL-60(TB) leukemia
MOLT-4 leukemia = test system: MOLT-4 leukemia
SR leukemia = test system: SR leukemia
RXF 393 renal = test system: RXF 393 renal
NCI/ADR-RES ovarian = test system: NCI/ADR-RES ovarian
MDA-MB-435 = test system: MDA-MB-435
HOP-92 NSCLC = test system: HOP-92 NSCLC
NCI-H23 lung = test system: NCI-H23 lung
SN12C renal = test system: SN12C renal
786-0 renal = test system: 786-0 renal
HCT-15 colon = test system: HCT-15 colon
IGROV1 ovarian = test system: IGROV1 ovarian
NCI-H226 lung = test system: NCI-H226 lung
HCC-2998 colon = test system: HCC-2998 colon
SK-MEL-2 melanoma = test system: SK-MEL-2 melanoma
A549 NSCLC = test system: A549 NSCLC
HS 578T breast = test system: HS 578T breast
MCF7 breast = test system: MCF7 breast
KM12 colon = test system: KM12 colon
CAKI-1 renal = test system: CAKI-1 renal
ACHN renal = test system: ACHN renal
M14 melanoma = test system: M14 melanoma
MDA-N = test system: MDA-N
COLO 205 colon = test system: COLO 205 colon
SNB-19 CNS = test system: SNB-19 CNS
MDA-MB-231 breast = test system: MDA-MB-231 breast
HT29 colon = test system: HT29 colon
SW-620 colon = test system: SW-620 colon
EKVX NSCLC = test system: EKVX NSCLC
HOP-62 NSCLC = test system: HOP-62 NSCLC
SK-OV-3 ovarian = test system: SK-OV-3 ovarian

CCCCCNC(=O)OC1CCn2c1nc1c2C(=O)C(C)=C(N2CC2)C1=O (stereo unspecified)
TGI (U251 CNS): 4.7 µM
TGI (SF-539 CNS): 5.33 µM
TGI (CCRF-CEM leukemia): > 100 µM
TGI (K-562 leukemia): 7.75 µM
TGI (T-47D breast): 7.16 µM
TGI (OVCAR-5 ovarian): 7.77 µM
TGI (BT-549 breast): 3.08 µM
TGI (OVCAR-3 ovarian): 7.05 µM
TGI (RPMI-8226 leukemia): > 100 µM
TGI (UO-31 renal): 3.87 µM
TGI (OVCAR-8 ovarian): 5.31 µM
TGI (TK-10 renal): 12.5 µM
TGI (HCT-116 colon): 4.33 µM
TGI (UACC-257 melanoma): 3.22 µM
TGI (SNB-75 CNS): 2.69 µM
TGI (MALME-3M melanoma): 4.27 µM
TGI (SK-MEL-28 melanoma): 2.78 µM
TGI (NCI-H522 lung): 3.4 µM
TGI (UACC-62 melanoma): 3.54 µM
TGI (PC-3 prostate): 2.39 µM
TGI (NCI-H460 lung): 1.05 µM
TGI (DU-145 prostate): 2.37 µM
TGI (LOX IMVI melanoma): 1.07 µM
TGI (OVCAR-4 ovarian): 4.98 µM
TGI (SK-MEL-5 melanoma): 1.73 µM
TGI (SF-268 CNS): 4.84 µM
TGI (SF-295 CNS): 2.69 µM
TGI (A498 renal): 3.31 µM
TGI (HL-60(TB) leukemia): > 100 µM
TGI (MOLT-4 leukemia): 43.8 µM
TGI (SR leukemia): > 100 µM
TGI (RXF 393 renal): 1.82 µM
TGI (NCI/ADR-RES ovarian): 10.4 µM
TGI (MDA-MB-435): 3.13 µM
TGI (HOP-92 NSCLC): 72 µM
TGI (NCI-H23 lung): 6.2 µM
TGI (SN12C renal): 3.27 µM
TGI (786-0 renal): 1.75 µM
TGI (HCT-15 colon): 4.45 µM
TGI (IGROV1 ovarian): 3.43 µM
TGI (NCI-H226 lung): 4.26 µM
TGI (HCC-2998 colon): 1.37 µM
TGI (SK-MEL-2 melanoma): 3.7 µM
TGI (A549 NSCLC): 2.57 µM
TGI (HS 578T breast): 6.24 µM
TGI (MCF7 breast): 2.21 µM
TGI (KM12 colon): 3.48 µM
TGI (CAKI-1 renal): 2.9 µM
TGI (ACHN renal): 2.81 µM
TGI (M14 melanoma): 4.04 µM
TGI (MDA-N): 2.88 µM
TGI (COLO 205 colon): 2.82 µM
TGI (SNB-19 CNS): 11.5 µM
TGI (MDA-MB-231 breast): 5.31 µM
TGI (HT29 colon): 2.77 µM

O=C(Nc1nc2ccc([N+](=O)[O-])cc2s1)c1cc([N+](=O)[O-])ccc1Cl
TGI (U251 CNS): 12.1 µM
TGI (SF-539 CNS): 6.71 µM
TGI (T-47D breast): > 100 µM
TGI (OVCAR-5 ovarian): 17 µM
TGI (BT-549 breast): 6.83 µM
TGI (OVCAR-3 ovarian): 9.64 µM
TGI (RPMI-8226 leukemia): 9.8 µM
TGI (OVCAR-8 ovarian): 9.57 µM
TGI (TK-10 renal): 32 µM
TGI (HCT-116 colon): 5.33 µM
TGI (UACC-257 melanoma): 19.2 µM
TGI (SNB-75 CNS): 9.61 µM
TGI (MALME-3M melanoma): 10.4 µM
TGI (NCI-H522 lung): 4.39 µM
TGI (DU-145 prostate): 31 µM
TGI (LOX IMVI melanoma): 5.3 µM
TGI (OVCAR-4 ovarian): > 100 µM
TGI (SK-MEL-5 melanoma): 2.83 µM
TGI (SF-268 CNS): 11.7 µM
TGI (SF-295 CNS): 14.8 µM
TGI (A498 renal): 7.42 µM
TGI (SW-620 colon): 5.59 µM
TGI (MOLT-4 leukemia): > 100 µM
TGI (EKVX NSCLC): 8.55 µM
TGI (RXF 393 renal): 15.5 µM
TGI (NCI/ADR-RES ovarian): 8.23 µM
TGI (MDA-MB-435): 16.4 µM
TGI (HOP-92 NSCLC): 2.97 µM
TGI (NCI-H23 lung): 6.92 µM
TGI (SN12C renal): 4.57 µM
TGI (786-0 renal): 11.7 µM
TGI (HCT-15 colon): 8.3 µM
TGI (NCI-H226 lung): 7.24 µM
TGI (HOP-62 NSCLC): 10.3 µM
TGI (KM12 colon): 50.5 µM
TGI (CAKI-1 renal): 24.3 µM
TGI (ACHN renal): 13.7 µM
TGI (MDA-N): 5.04 µM
TGI (COLO 205 colon): 3.65 µM
TGI (MDA-MB-231 breast): 21.3 µM
TGI (SK-OV-3 ovarian): 13.6 µM
TGI (HT29 colon): 6.03 µM

O=P1(C(O)c2ccccc2)N(Cc2ccccc2)[C@@H]2CCCC[C@H]2N1Cc1ccccc1 (stereo partly specified)
TGI (U251 CNS): > 100 µM
TGI (SF-539 CNS): 45.6 µM
TGI (CCRF-CEM leukemia): > 100 µM
TGI (K-562 leukemia): > 100 µM
TGI (T-47D breast): 85.6 µM
TGI (OVCAR-5 ovarian): 76.8 µM
TGI (BT-549 breast): > 100 µM
TGI (OVCAR-3 ovarian): 91.3 µM
TGI (UO-31 renal): > 100 µM
TGI (OVCAR-8 ovarian): > 100 µM
TGI (TK-10 renal): > 100 µM
TGI (HCT-116 colon): > 100 µM
TGI (UACC-257 melanoma): 56 µM
TGI (SNB-75 CNS): 55.1 µM
TGI (MALME-3M melanoma): 73.1 µM
TGI (SK-MEL-28 melanoma): > 100 µM
TGI (NCI-H522 lung): 63.6 µM
TGI (UACC-62 melanoma): > 100 µM
TGI (PC-3 prostate): 89.1 µM
TGI (NCI-H460 lung): > 100 µM
TGI (DU-145 prostate): > 100 µM
TGI (LOX IMVI melanoma): 32.1 µM
TGI (OVCAR-4 ovarian): 53.1 µM
TGI (SK-MEL-5 melanoma): > 100 µM
TGI (SF-268 CNS): 97.1 µM
TGI (SF-295 CNS): 56.6 µM
TGI (SW-620 colon): > 100 µM
TGI (HL-60(TB) leukemia): 47.2 µM
TGI (MOLT-4 leukemia): 49.1 µM
TGI (EKVX NSCLC): > 100 µM
TGI (SR leukemia): 49.9 µM
TGI (RXF 393 renal): > 100 µM
TGI (NCI/ADR-RES ovarian): > 100 µM
TGI (MDA-MB-435): 71 µM
TGI (NCI-H23 lung): > 100 µM
TGI (SN12C renal): 43 µM
TGI (786-0 renal): 47.9 µM
TGI (HCT-15 colon): > 100 µM
TGI (IGROV1 ovarian): 49.9 µM
TGI (NCI-H226 lung): 64.7 µM
TGI (HCC-2998 colon): 50.4 µM
TGI (SK-MEL-2 melanoma): 73.7 µM
TGI (HOP-62 NSCLC): > 100 µM
TGI (A549 NSCLC): > 100 µM
TGI (HS 578T breast): 45.5 µM
TGI (MCF7 breast): > 100 µM
TGI (KM12 colon): > 100 µM
TGI (CAKI-1 renal): > 100 µM
TGI (ACHN renal): > 100 µM
TGI (M14 melanoma): 58.5 µM
TGI (MDA-N): > 100 µM
TGI (COLO 205 colon): 29.1 µM
TGI (SNB-19 CNS): > 100 µM
TGI (MDA-MB-231 breast): 53.8 µM
TGI (SK-OV-3 ovarian): > 100 µM
TGI (HT29 colon): 46.3 µM

CNC(=O)N(C)C(=O)c1ccccc1C(=O)N(C)C(=O)NC
TGI (U251 CNS): > 10 µM
TGI (SF-539 CNS): > 10 µM
TGI (CCRF-CEM leukemia): > 10 µM
TGI (K-562 leukemia): > 10 µM
TGI (T-47D breast): > 10 µM
TGI (OVCAR-5 ovarian): > 10 µM
TGI (BT-549 breast): > 10 µM
TGI (OVCAR-3 ovarian): > 10 µM
TGI (RPMI-8226 leukemia): > 10 µM
TGI (UO-31 renal): > 10 µM
TGI (OVCAR-8 ovarian): > 10 µM
TGI (TK-10 renal): > 10 µM
TGI (HCT-116 colon): > 10 µM
TGI (UACC-257 melanoma): > 10 µM
TGI (SNB-75 CNS): > 10 µM
TGI (MALME-3M melanoma): > 10 µM
TGI (SK-MEL-28 melanoma): > 10 µM
TGI (NCI-H522 lung): > 10 µM
TGI (UACC-62 melanoma): > 10 µM
TGI (PC-3 prostate): > 10 µM
TGI (NCI-H460 lung): > 10 µM
TGI (DU-145 prostate): > 10 µM
TGI (LOX IMVI melanoma): > 10 µM
TGI (OVCAR-4 ovarian): > 10 µM
TGI (SK-MEL-5 melanoma): > 10 µM
TGI (SF-268 CNS): > 10 µM
TGI (SF-295 CNS): > 10 µM
TGI (A498 renal): > 10 µM
TGI (SW-620 colon): > 10 µM
TGI (HL-60(TB) leukemia): > 10 µM
TGI (MOLT-4 leukemia): > 10 µM
TGI (EKVX NSCLC): > 10 µM
TGI (SR leukemia): > 10 µM
TGI (RXF 393 renal): > 10 µM
TGI (NCI/ADR-RES ovarian): > 10 µM
TGI (HOP-92 NSCLC): > 10 µM
TGI (NCI-H23 lung): > 10 µM
TGI (SN12C renal): > 10 µM
TGI (786-0 renal): > 10 µM
TGI (HCT-15 colon): > 10 µM
TGI (IGROV1 ovarian): > 10 µM
TGI (NCI-H226 lung): > 10 µM
TGI (HCC-2998 colon): > 10 µM
TGI (SK-MEL-2 melanoma): > 10 µM
TGI (HOP-62 NSCLC): > 10 µM
TGI (A549 NSCLC): > 10 µM
TGI (HS 578T breast): > 10 µM
TGI (MCF7 breast): > 10 µM
TGI (KM12 colon): > 10 µM
TGI (CAKI-1 renal): > 10 µM
TGI (ACHN renal): > 10 µM
TGI (M14 melanoma): > 10 µM
TGI (MDA-N): > 10 µM
TGI (COLO 205 colon): > 10 µM
TGI (SNB-19 CNS): > 10 µM
TGI (MDA-MB-231 breast): > 10 µM
TGI (SK-OV-3 ovarian): > 10 µM
TGI (HT29 colon): > 10 µM

— PubChem BioAssay (NCI)
